Measurements: ChEMBL document CHEMBL6103613 (J Med Chem, 2025)
Values after ≈ are worked out from the molar mass of the structure shown. Positions of bridges follow the written chain, without caps; N, C: chain ends. Non-standard residues stand in square brackets, D forms with d. Residues, ends and D or L forms follow the SMILES beside them. *: point of attachment. X1 = CC[C@H](C)CCCCC(=O)*; dDab = NCC[C@@H](N)C(=O)O; Dab = NCC[C@H](N)C(=O)O

Tests used:
Cell membrane [1] = experiment: Disruption of cell membrane integrity in Staphylococcus aureus at 4 times of MIC incubated for 1 mins by Propidium iodide staining based analysis; type: subcellular
Cell membrane [2] = experiment: Disruption of cell membrane integrity in Staphylococcus aureus at 4 times of MIC incubated for 30 mins by Propidium iodide staining based analysis; type: subcellular
Candida albicans = experiment: Antifungal activity against Candida albicans assessed as reduction in fungal growth incubated for 18 hrs by CLSI based analysis; type: functional
[3] = tested on: Staphylococcus epidermidis; experiment: Antimicrobial activity against Staphylococcus epidermidis ATCC 12228 assessed as inhibition of visible bacterial growth incubated for 18 hrs by CLSI based analysis; type: functional
[4] = Hemolytic activity against mouse Red blood cell incubated for 1 hr; type: toxicity, cell-based; details: erythrocyte
Enterococcus faecalis = experiment: Antimicrobial activity against Enterococcus faecalis ATCC 19433 assessed as inhibition of visible bacterial growth incubated for 18 hrs by CLSI based analysis; type: functional
[5] = Therapeutic index, ratio of HC5 for hemolytic activity in mouse Red blood cell to MIC for antimicrobial activity against Staphylococcus aureus ATCC 25923 assessed as inhibition of visible bacterial growth; type: toxicity, cell-based, RBC; details: red blood cells, read-out: TI
Staphylococcus aureus [6] = experiment: Antimicrobial activity against methicillin-resistant Staphylococcus aureus clinical isolate 4 assessed as inhibition of visible bacterial growth incubated for 18 hrs by CLSI based analysis; type: functional
Staphylococcus aureus [7] = experiment: Antimicrobial activity against methicillin-resistant Staphylococcus aureus clinical isolate 2 assessed as inhibition of visible bacterial growth incubated for 18 hrs by CLSI based analysis; type: functional
Escherichia coli = experiment: Antimicrobial activity against Escherichia coli assessed as inhibition of visible bacterial growth incubated for 18 hrs by CLSI based analysis; type: functional
Bacillus subtilis = experiment: Antimicrobial activity against Bacillus subtilis ATCC 23875 assessed as inhibition of visible bacterial growth incubated for 18 hrs by CLSI based analysis; type: functional
Staphylococcus aureus [8] = experiment: Antimicrobial activity against methicillin-resistant Staphylococcus aureus ATCC 43300 assessed as inhibition of visible bacterial growth incubated for 18 hrs by CLSI based analysis; type: functional
Enterococcus gallinarum = experiment: Antimicrobial activity against Enterococcus gallinarum ATCC 49573 assessed as inhibition of visible bacterial growth incubated for 18 hrs by CLSI based analysis; type: functional
Staphylococcus aureus [9] = experiment: Antimicrobial activity against methicillin-resistant Staphylococcus aureus clinical isolate 3 assessed as inhibition of visible bacterial growth incubated for 18 hrs by CLSI based analysis; type: functional
Enterococcus faecium = experiment: Antimicrobial activity against vancomycin-resistant Enterococcus faecium assessed as inhibition of visible bacterial growth incubated for 18 hrs by CLSI based analysis; type: functional
Staphylococcus aureus [10] = experiment: Antimicrobial activity against Staphylococcus aureus assessed as inhibition of visible bacterial growth incubated for 18 hrs by CLSI based analysis; type: functional
Staphylococcus aureus [11] = experiment: Antimicrobial activity against Staphylococcus aureus ATCC 25923 assessed as inhibition of visible bacterial growth incubated for 18 hrs by CLSI based analysis; type: functional
[12] = Hemolytic activity against mouse Red blood cells at 100 microg/ml incubated for 1 hr relative to control; type: toxicity, cell-based, Erythrocyte; details: at 100 µg/mL, read-out: Activity

Compound	Activity (Cell membrane [1]) [%]	Activity (Cell membrane [2]) [%]	MIC (Candida albicans) [µg/mL]	MIC [3] [µg/mL]	HC5 [4] [µg/mL]	MIC (Enterococcus faecalis) [µg/mL]	selectivity ratio [5]	MIC (Staphylococcus aureus [6]) [µg/mL]	MIC (Staphylococcus aureus [7]) [µg/mL]	MIC (Escherichia coli) [µg/mL]	MIC (Bacillus subtilis) [µg/mL]	MIC (Staphylococcus aureus [8]) [µg/mL]	MIC (Enterococcus gallinarum) [µg/mL]	MIC (Staphylococcus aureus [9]) [µg/mL]	MIC (Enterococcus faecium) [µg/mL]	MIC (Staphylococcus aureus [10]) [µg/mL]	MIC (Staphylococcus aureus [11]) [µg/mL]	hemolysis at 1 h, 100 microg/ml [12] [%]
CC(C)CCCCC(=O)N[C@@H](CCN)C(=O)N[C@H](C(=O)N[C@@H](CCN)C(=O)N[C@H]1CCNC(=O)[C@H]([C@@H](C)O)NC(=O)[C@H](CCN)NC(=O)[C@H](CCN)NC(=O)[C@H](CC(C)C)NC(=O)[C@@H](Cc2ccccc2)NC(=O)[C@@H](CCN)NC1=O)[C@@H](C)O.CC[C@H](C)CCCCC(=O)N[C@@H](CCN)C(=O)N[C@H](C(=O)N[C@@H](CCN)C(=O)N[C@H]1CCNC(=O)[C@H]([C@@H](C)O)NC(=O)[C@H](CCN)NC(=O)[C@H](CCN)NC(=O)[C@H](CC(C)C)NC(=O)[C@@H](Cc2ccccc2)NC(=O)[C@@H](CCN)NC1=O)[C@@H](C)O (X1-[Dab]T[Dab][Dab][dDab][dF]L[Dab][Dab]T; lactam 4-C)	5.54	38																
CC(C)C[C@H]1NC(=O)[C@H](Cc2c(C(c3ccccc3)c3ccccc3)[nH]c3ccccc23)NC(=O)[C@@H](C(C)C)NC(=O)[C@@H]2CSC(N2)[C@H](C(C)C)NC(=O)[C@@H](CCCCN)NC(=O)[C@H](C(C)C)NC1=O			3.13 (≈ 3.2 µM)	12.5 (≈ 12.8 µM)	43.53	25 (≈ 25.6 µM)	3.48	12.5 (≈ 12.8 µM)	12.5 (≈ 12.8 µM)	3.13 (≈ 3.2 µM)	6.25 (≈ 6.39 µM)	12.5 (≈ 12.8 µM)	25 (≈ 25.6 µM)	12.5 (≈ 12.8 µM)	25 (≈ 25.6 µM)	3.13 (≈ 3.2 µM)	12.5 (≈ 12.8 µM)	
CC(C)C[C@H]1NC(=O)[C@H](Cc2c(C(c3ccccc3)(c3ccccc3)c3ccccc3)[nH]c3ccccc23)NC(=O)[C@@H](C(C)C)NC(=O)[C@@H]2CSC(N2)[C@H](C(C)C)NC(=O)[C@@H](CCCCN)NC(=O)[C@H](C(C)C)NC1=O			3.13 (≈ 2.97 µM)	6.25 (≈ 5.93 µM)	44.04	12.5 (≈ 11.9 µM)	14.1	6.25 (≈ 5.93 µM)	3.13 (≈ 2.97 µM)	3.13 (≈ 2.97 µM)	6.25 (≈ 5.93 µM)	3.13 (≈ 2.97 µM)	6.25 (≈ 5.93 µM)	6.25 (≈ 5.93 µM)	12.5 (≈ 11.9 µM)	3.13 (≈ 2.97 µM)	3.13 (≈ 2.97 µM)	23
CC(C)C[C@H]1NC(=O)[C@H](Cc2c(C(c3ccccc3)c3ccccc3)[nH]c3ccccc23)NC(=O)[C@@H](CCCCN)NC(=O)[C@@H]2CSC(N2)[C@H](C(C)C)NC(=O)[C@@H](C(C)C)NC(=O)[C@H](C(C)C)NC1=O			3.13 (≈ 3.2 µM)	25 (≈ 25.6 µM)	> 100	25 (≈ 25.6 µM)	> 4	25 (≈ 25.6 µM)	25 (≈ 25.6 µM)	3.13 (≈ 3.2 µM)	25 (≈ 25.6 µM)	25 (≈ 25.6 µM)	50 (≈ 51.1 µM)	25 (≈ 25.6 µM)	50 (≈ 51.1 µM)	3.13 (≈ 3.2 µM)	25 (≈ 25.6 µM)	
CC(C)C[C@H]1NC(=O)[C@H](Cc2c(C(c3ccccc3)(c3ccccc3)c3ccccc3)[nH]c3ccccc23)NC(=O)[C@@H](C(C)C)NC(=O)[C@@H]2CSC(N2)[C@H](C(C)C)NC(=O)[C@@H](C(C)C)NC(=O)[C@H](C(C)C)NC1=O				> 50		> 50		> 50	> 50		> 50	> 50	> 50	> 50	> 50		> 50	
CC(C)C[C@H]1NC(=O)[C@H](Cc2c(C(c3ccccc3)(c3ccccc3)c3ccccc3)[nH]c3ccccc23)NC(=O)[C@@H](C(C)C)NC(=O)[C@@H]2CSC(N2)[C@H](C(C)C)NC(=O)[C@@H](C(C)C)NC(=O)[C@H](CCCCN)NC1=O			3.13 (≈ 2.97 µM)	6.25 (≈ 5.93 µM)	68.73	12.5 (≈ 11.9 µM)	11	6.25 (≈ 5.93 µM)	6.25 (≈ 5.93 µM)	3.13 (≈ 2.97 µM)	6.25 (≈ 5.93 µM)	6.25 (≈ 5.93 µM)	12.5 (≈ 11.9 µM)	6.25 (≈ 5.93 µM)	12.5 (≈ 11.9 µM)	3.13 (≈ 2.97 µM)	6.25 (≈ 5.93 µM)	
CC(C)[C@@H]1NC(=O)[C@@H](C(C)C)NC(=O)[C@H](C(C)C)NC(=O)[C@@H](CCCCN)NC(=O)[C@H](Cc2c(C(c3ccccc3)c3ccccc3)[nH]c3ccccc23)NC(=O)[C@@H](C(C)C)NC(=O)[C@@H]2CSC1N2			3.13 (≈ 3.25 µM)	6.25 (≈ 6.48 µM)	74.17	50 (≈ 51.9 µM)	5.93	12.5 (≈ 13 µM)	12.5 (≈ 13 µM)	3.13 (≈ 3.25 µM)	6.25 (≈ 6.48 µM)	12.5 (≈ 13 µM)	25 (≈ 25.9 µM)	12.5 (≈ 13 µM)	50 (≈ 51.9 µM)	3.13 (≈ 3.25 µM)	12.5 (≈ 13 µM)	
